Where “and” joins values, the source holds several entries; their conditions need not be identical. Identical values can stand only once.

The subject of test [1] is propiconazole resistant mutants of Chlorella species (PcZ-1). The test is described as follows: Growth (OD at 750 nm) of PcZ-1 mutant with and without 10 μM propiconazole, compared with wild type. The class given is cell-based, Chlorella sorokiniana. The following applies: for Average % increase PcZ-1 + 10 uM PcZ / % increase PcZ-1 + 10 μM PcZ: PcZ-1 with 10 μM propiconazole vs wild type without propiconazole; for % increase PcZ-1 + 10 μM PcZ: individual replicates, listed as PcZ. How it is done: (§1) Chlorella sorokiniana cells (Wild type) and propiconazole resistant mutants of Chlorella species (PcZ-1) were inoculated at 0.1-0.15 OD@750 nm (each set in triplicates). To verify the effect of methanol (propiconazole was dissolved in methanol), one set was treated with 0.1% methanol. One set of flasks in triplicate of Wild type and PcZ-1 mutants were inoculated with and without 10 μM propiconazole. After inoculation flasks were kept in 12 h light/12 hour dark cycles of white light in an incubator shaker at 100 rpm. The temperature was 28° C., 70% humidity and 2% ambient CO2. 3 mL sample was removed each day, to determine the Optical density (OD) of the culture at 750 nm. The results obtained are as illustrated in FIG. 1.
FIG. 1 illustrates a graph of the growth comparison between wild type Chlorella sorokiniana and propiconazole resistant mutants of Chlorella species Chlorella sorokiniana mutant PcZ-1, in the presence of propiconazole, wherein A represents wild type Chlorella sorokiniana grown in the absence of propiconazole, B represents wild type Chlorella sorokiniana grown in the presence of 0.1% methanol, C represents wild type Chlorella sorokiniana grown in the presence of 10 μM propiconazole, D represents PcZ-1 grown in the absence of propiconazole, E represents PcZ-1 grown in the presence of 0.1% methanol, and F represents PcZ-1 grown in the presence of 10 μM propiconazole. […] The propiconazole resistant mutants of Chlorella species (PcZ-1) was not affected by the presence of propiconazole, and continued to grow.

Test [2] deals with wild type Chlorella sorokiniana. Briefly: Growth (OD at 750 nm) of wild type Chlorella sorokiniana in the presence of propiconazole. Format: cell-based. The following applies: 10 μM propiconazole; culture typically crashes after a few days. On the procedure:
as §1
FIG. 1 illustrates a graph of the growth comparison between wild type Chlorella sorokiniana and propiconazole resistant mutants of Chlorella species Chlorella sorokiniana mutant PcZ-1, in the presence of propiconazole, wherein A represents wild type Chlorella sorokiniana grown in the absence of propiconazole, B represents wild type Chlorella sorokiniana grown in the presence of 0.1% methanol, C represents wild type Chlorella sorokiniana grown in the presence of 10 μM propiconazole, D represents PcZ-1 grown in the absence of propiconazole, E represents PcZ-1 grown in the presence of 0.1% methanol, and F represents PcZ-1 grown in the presence of 10 μM propiconazole. […]

The subject of another test is grazers. The following applies: general statement, no test described; cited from earlier work.

For the compound `CCCC1COC(Cn2cncn2)(c2ccc(Cl)cc2Cl)O1` (stereo not drawn) [propiconazole, Propiconazole], in test [1] (10 μM propiconazole, continued to grow), the “Growth of PcZ-1 in the presence of propiconazole” value is listed as “not affected”. Also, the “Average % increase PcZ-1 + 10 uM PcZ” value worked out at 60.2% in test [1] (day 4), 27.1% in test [1] (day 6) and 21.1% in test [1] (day 7). Besides, the “% increase PcZ-1 + 10 μM PcZ” value in test [1] (day 4) was 45.5% and 66.7% and 68.6%; in test [1] (day 6), 17.3% and 38.7% and 25.4%; in test [1] (day 7) it was 10.6% and 29.4% and 23.2%. In addition, the “Growth of the wild type Chlorella sorokiniana in the presence of propiconazole” value in test [2] is listed as “inhibited”. For the same compound, in the test with grazers, the “Concentration at which propiconazole is a potent grazicide” value is no less than 0.5 ppm.
